pIC50: −log10 of the molar value. Calls of active or inactive are those of the source.
Columns and labels:
[1] = target: T1, Neuropeptides B/W receptor type 1 (Homo sapiens, UniProt P48145); test: GPR7 antagonist potency, late-stage follow-up, cell-based, fluorescence, dose response (AID 463251); format: functional
T1 sequence (P48145 whole entry): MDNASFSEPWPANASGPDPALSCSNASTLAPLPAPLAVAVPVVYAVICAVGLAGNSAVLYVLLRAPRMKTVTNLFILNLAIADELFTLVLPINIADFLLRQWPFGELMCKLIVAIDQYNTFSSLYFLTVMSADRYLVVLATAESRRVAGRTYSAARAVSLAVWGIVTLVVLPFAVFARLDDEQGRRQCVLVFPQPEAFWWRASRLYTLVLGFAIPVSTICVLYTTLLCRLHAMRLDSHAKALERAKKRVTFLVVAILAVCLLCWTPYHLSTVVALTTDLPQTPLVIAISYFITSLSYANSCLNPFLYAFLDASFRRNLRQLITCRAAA

[2] = target: Melanin-concentrating hormone receptor 1 (Homo sapiens, UniProt Q99705); test: Late-stage fluorescence-based counterscreen for antagonists of the G-protein coupled receptor 7 (GPR7): cell-based dose response assay to identify antagonists of the melanin-concentrating hormone receptor 1 (MCHR1). [Related pubchem assays (depositor defined):AID1861, AID1880, AID1952, AID2148, AID2251, AID2257, AID485339]; format: functional;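 also: stimulated with 30 nM MCH peptide agonist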
Chain of Melanin-concentrating hormone receptor 1 (Q99705 whole entry): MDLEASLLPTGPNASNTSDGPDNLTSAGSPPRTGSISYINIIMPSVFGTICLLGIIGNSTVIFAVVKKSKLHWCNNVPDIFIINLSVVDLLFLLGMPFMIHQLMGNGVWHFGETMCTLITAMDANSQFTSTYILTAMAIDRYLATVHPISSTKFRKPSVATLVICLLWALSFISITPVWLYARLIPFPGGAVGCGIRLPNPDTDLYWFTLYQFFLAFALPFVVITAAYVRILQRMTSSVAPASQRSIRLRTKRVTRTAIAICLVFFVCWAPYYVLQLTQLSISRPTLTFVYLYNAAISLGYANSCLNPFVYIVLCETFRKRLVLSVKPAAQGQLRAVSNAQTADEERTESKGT

[3] = target: G2/mitotic-specific cyclin-B1 (Homo sapiens, UniProt P14635); test: G2/M cell cycle arrest in HeLa, late-stage follow-up, mechanism study for Wee1 degradation inhibitor project, FACS, panel member Cyclin B Degradation (AID 2088)
Chain of G2/mitotic-specific cyclin-B1 (P14635 whole entry): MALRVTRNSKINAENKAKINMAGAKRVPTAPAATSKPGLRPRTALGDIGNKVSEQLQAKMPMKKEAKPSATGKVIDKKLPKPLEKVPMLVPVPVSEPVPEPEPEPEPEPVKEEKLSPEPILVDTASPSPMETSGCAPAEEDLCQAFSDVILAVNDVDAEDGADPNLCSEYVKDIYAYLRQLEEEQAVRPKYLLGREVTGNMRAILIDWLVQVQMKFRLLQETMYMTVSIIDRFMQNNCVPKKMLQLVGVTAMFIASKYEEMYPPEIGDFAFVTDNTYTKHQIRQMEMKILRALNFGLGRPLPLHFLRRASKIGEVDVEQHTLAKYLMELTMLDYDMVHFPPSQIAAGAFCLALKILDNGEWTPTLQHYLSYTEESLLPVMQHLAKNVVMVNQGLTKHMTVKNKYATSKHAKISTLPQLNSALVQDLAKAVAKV

Wee1-like protein kinase = Wee1-like protein kinase (Homo sapiens, UniProt P30291); test: G2/M cell cycle arrest in HeLa, late-stage follow-up, mechanism study for Wee1 degradation inhibitor project, FACS, panel member Wee1 Degradation (AID 2088)
Chain of Wee1-like protein kinase (P30291 whole entry): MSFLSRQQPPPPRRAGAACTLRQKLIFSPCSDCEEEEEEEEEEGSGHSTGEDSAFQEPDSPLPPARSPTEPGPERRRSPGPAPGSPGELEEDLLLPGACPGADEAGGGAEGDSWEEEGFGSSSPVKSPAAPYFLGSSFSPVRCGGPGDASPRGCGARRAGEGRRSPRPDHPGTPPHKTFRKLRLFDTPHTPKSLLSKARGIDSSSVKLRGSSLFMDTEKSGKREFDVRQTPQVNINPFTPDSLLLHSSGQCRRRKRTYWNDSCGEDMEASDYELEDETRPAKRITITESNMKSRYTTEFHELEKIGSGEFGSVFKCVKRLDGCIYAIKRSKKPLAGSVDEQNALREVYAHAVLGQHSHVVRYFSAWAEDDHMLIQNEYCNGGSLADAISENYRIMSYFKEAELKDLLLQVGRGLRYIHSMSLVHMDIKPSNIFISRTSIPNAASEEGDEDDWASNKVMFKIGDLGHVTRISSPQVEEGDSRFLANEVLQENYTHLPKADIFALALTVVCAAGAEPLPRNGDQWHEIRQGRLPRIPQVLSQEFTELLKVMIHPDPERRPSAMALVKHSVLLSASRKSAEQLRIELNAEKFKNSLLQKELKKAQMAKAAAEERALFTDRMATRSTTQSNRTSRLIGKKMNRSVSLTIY

Neutrophil collagenase = Neutrophil collagenase (Homo sapiens, UniProt P22894); test: MMP13 inhibition and MMP selectivity, late-stage follow-up, selectivity assay for MMP13 inhibitor project, biochemical, probe development, late stage results, panel member MMP-8 [IC50 Assay] (AID 2067)
Chain of Neutrophil collagenase (P22894 whole entry): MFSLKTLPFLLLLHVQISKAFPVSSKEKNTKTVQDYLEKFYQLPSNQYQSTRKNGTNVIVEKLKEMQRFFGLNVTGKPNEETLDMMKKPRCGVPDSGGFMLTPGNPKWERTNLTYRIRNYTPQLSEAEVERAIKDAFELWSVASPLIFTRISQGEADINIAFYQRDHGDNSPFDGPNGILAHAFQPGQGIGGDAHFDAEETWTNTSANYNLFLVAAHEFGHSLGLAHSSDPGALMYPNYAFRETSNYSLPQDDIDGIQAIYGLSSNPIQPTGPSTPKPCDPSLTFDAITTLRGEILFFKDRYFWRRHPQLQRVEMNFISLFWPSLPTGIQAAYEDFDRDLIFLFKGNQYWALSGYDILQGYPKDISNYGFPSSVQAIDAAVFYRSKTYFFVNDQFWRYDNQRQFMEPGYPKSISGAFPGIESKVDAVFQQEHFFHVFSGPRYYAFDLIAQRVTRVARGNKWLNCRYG

Collagenase 3 = Collagenase 3 (Homo sapiens, UniProt P45452); test: MMP13 inhibition and MMP selectivity, late-stage follow-up, selectivity assay for MMP13 inhibitor project, biochemical, probe development, late stage results, panel member MMP-13 [IC50 Assay] (AID 2067)
[4] = target: T2, Kappa-type opioid receptor (Homo sapiens, UniProt P41145); format: functional
T2 sequence (P41145 whole entry): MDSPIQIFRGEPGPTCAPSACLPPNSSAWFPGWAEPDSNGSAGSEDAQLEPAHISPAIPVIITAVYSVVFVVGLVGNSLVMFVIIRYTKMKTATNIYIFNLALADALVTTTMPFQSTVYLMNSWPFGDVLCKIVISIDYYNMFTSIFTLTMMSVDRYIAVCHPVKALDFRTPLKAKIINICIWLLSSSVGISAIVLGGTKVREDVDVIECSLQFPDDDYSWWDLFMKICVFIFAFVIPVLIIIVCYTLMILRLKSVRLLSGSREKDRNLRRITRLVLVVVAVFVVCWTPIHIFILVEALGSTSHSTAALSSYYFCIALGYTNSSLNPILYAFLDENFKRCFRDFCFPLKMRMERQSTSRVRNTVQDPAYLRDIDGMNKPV

[5] = NIH-3T3 fibroblast cytotoxicity, dose response, cytotoxicity control for antifungal single agent project, cell-based, Alamar Blue, dry powder (AID 602188); format: functional
INS1 = test: beta cell apoptosis inhibitors, cytokine rescue, dose response, luminescence, retest (AID 449756); format: functional, cell-based; conditions: Rattus norvegicus;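 also: cell death triggered by IL-1 beta plus TNF-alpha plus IFN-gamma mixture; protective hits raise ATP signal compared with cytokine alone wells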
[6] = target: T2, Kappa-type opioid receptor; format: functional; remark: listed apart in the source
[7] = target: Heat shock protein HSP 90-alpha (Homo sapiens, UniProt P07900); format: functional, organism-based
[8] = NIH-3T3 fibroblast cytotoxicity, dose response, cytotoxicity control, cell-based, fluorescence, Alamar Blue, secondary assay (AID 2327); format: functional;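 also: NIH-3T3 mouse fibroblasts cultured with fluconazole at 8 µg/mL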
Beta-galactosidase [9] = target: T3, Beta-galactosidase (Escherichia coli, UniProt Q8VNN2); test: Dose response counterscreen for EBI2 assay utilizing the enzyme, b-galactosidase.; format: functional
T3 sequence (Q8VNN2 whole entry): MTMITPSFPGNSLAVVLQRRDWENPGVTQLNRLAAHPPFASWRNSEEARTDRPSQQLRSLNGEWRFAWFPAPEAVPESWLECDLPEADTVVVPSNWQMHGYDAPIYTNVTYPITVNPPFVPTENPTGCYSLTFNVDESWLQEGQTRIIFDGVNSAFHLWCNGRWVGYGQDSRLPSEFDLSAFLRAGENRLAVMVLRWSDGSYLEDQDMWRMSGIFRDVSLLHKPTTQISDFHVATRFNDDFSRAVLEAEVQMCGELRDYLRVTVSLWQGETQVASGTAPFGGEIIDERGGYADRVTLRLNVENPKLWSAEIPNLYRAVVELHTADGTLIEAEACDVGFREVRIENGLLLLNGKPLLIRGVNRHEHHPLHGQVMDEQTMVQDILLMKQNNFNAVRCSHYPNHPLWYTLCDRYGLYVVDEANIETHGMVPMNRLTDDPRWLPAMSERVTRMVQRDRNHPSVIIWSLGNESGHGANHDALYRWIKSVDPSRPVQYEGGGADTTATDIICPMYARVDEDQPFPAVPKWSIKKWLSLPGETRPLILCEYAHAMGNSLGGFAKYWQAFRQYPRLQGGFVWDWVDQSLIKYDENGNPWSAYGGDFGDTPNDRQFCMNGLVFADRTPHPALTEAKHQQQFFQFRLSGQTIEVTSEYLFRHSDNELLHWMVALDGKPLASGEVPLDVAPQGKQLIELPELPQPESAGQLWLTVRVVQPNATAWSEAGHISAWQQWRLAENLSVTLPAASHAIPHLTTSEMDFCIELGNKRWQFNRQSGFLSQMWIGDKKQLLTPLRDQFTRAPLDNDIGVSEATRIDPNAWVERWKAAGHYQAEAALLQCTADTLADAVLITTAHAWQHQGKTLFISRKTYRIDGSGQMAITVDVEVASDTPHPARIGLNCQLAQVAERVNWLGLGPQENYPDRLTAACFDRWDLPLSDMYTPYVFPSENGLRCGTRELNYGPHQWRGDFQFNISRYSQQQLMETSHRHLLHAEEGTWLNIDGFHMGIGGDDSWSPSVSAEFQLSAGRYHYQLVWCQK

[10] = target: ATP-dependent molecular chaperone HSP82 (Candida albicans (strain WO-1) (Yeast), UniProt C4YTQ8); test: loss of DOC-induced GRE-beta-galactosidase reporter signal, dose response, Hsp90 inhibitor project, S. cerevisiae, luminescence (AID 2400); format: functional, cell-based;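 also: beta-galactosidase luminescence from glucocorticoid response element reporter as proxy for Hsp90 function; inhibitor potency where signal loss means Hsp90 inhibition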
Nonstructural protein 1 = Nonstructural protein 1 (Influenza A virus, UniProt Q194T2); format: functional, Influenza A virus (A/California/07/2009(H1N1))
Chain of Nonstructural protein 1 (Q194T2 whole entry): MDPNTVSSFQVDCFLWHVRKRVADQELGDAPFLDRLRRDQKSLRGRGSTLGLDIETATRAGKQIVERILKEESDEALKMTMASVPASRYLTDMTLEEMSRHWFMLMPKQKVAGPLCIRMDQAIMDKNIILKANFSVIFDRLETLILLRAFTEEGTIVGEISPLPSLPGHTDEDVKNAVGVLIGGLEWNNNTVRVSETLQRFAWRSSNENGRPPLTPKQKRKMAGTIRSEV

Beta-galactosidase [11] = target: T3, Beta-galactosidase; format: functional
[12] = target: T4, Serine/threonine-protein phosphatase (Candida dubliniensis (strain CD36 / CBS 7987 / NCPF 3949 / NRRLY-17841) (Yeast), UniProt B9W6M3); test: calcineurin pathway inhibitors in yeast reporter, dose response, S. cerevisiae, CDRE-lacZ, luminescence, secondary (AID 2388); format: functional, cell-based;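 also: yeast reporter cells carrying a calcineurin-responsive lacZ construct stimulated with calcium chloride; luminescent beta-galactosidase reporter signal in whole cells rather than isolated phosphatase activity; potency for inhibition where a drop in reporter signal means calcineurin blockade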
T4 sequence (B9W6M3 whole entry): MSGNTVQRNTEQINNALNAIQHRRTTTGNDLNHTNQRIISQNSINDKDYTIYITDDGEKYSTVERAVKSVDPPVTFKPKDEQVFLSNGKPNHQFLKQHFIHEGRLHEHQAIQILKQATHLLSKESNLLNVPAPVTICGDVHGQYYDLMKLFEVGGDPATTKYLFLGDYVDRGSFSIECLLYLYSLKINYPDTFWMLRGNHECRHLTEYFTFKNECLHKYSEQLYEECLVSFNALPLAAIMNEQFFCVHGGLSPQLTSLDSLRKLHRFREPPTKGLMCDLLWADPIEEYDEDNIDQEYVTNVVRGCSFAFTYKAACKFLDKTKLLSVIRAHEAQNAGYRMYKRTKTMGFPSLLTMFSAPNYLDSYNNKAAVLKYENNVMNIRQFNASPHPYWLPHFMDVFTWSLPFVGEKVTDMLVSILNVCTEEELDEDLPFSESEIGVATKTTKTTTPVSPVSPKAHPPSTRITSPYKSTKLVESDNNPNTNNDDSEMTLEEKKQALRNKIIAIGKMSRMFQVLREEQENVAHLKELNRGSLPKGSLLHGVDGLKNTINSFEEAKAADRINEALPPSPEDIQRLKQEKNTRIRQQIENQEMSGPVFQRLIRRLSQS

[13] = C. albicans growth with fluconazole, confirmation, fluorescence, retest (AID 2467); format: functional, cell-based
Vero = Vero cell cytotoxicity, cytotoxicity control for flavivirus capping enzyme inhibitors (AID 588742); format: functional; conditions: Chlorocebus sabaeus
cells [14] = format: functional, cell-based
HeLa = test: HeLa cell cytotoxicity, dose response, cytotoxicity control, 24 h, cherry-picked samples (AID 504726); format: functional, cell-based; conditions: Homo sapiens;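 also: potency for cytotoxicity as loss of luminescence signal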
cells [15] = format: functional, cell-based; remark: listed apart in the source
Salmon testes DNA = test: DNA intercalators displacing acridine orange, dose response, artefact control for KSHV LANA DNA-binding inhibitor project, biochemical, fluorescence polarization, cherry-picked samples, set 2 (AID 504727); design: species or system Salmonidae
cells [16] = format: functional
[17] = target: T5, E3 ubiquitin-protein ligase XIAP (Homo sapiens, UniProt P98170); test: XIAP antagonists, biochemical, IAP family, fluorescence polarization (AID 1018); format: functional
T5 sequence (P98170 whole entry): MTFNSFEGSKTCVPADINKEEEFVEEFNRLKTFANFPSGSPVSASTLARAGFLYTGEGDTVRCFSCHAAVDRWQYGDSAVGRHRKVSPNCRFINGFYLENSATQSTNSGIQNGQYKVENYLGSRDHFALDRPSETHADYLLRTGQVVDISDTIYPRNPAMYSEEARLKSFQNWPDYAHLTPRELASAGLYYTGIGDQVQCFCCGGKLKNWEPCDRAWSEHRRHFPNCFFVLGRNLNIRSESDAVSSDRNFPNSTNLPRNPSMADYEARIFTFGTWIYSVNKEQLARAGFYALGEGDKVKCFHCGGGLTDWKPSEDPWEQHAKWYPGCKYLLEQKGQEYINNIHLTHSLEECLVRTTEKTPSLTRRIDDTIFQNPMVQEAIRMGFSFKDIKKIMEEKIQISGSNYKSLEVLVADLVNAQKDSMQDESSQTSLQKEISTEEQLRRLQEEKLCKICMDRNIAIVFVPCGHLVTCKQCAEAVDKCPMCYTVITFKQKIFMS

[18] = target: Induced myeloid leukemia cell differentiation protein Mcl-1 (Homo sapiens, UniProt Q07820); format: functional
Chain of Induced myeloid leukemia cell differentiation protein Mcl-1 (Q07820 whole entry): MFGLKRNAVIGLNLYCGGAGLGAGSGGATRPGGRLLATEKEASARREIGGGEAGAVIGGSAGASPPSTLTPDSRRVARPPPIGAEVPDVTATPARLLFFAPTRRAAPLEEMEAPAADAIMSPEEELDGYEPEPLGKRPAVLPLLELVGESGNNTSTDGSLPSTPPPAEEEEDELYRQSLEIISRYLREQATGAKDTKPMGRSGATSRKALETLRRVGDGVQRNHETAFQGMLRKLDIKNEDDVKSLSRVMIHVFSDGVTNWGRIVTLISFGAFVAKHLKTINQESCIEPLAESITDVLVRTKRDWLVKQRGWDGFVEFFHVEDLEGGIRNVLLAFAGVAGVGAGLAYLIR

Bcl-2-like protein 10 = target: T6, Bcl-2-like protein 10 (Homo sapiens, UniProt Q9HD36); test: displacers of TR3 peptide from Bcl-B, primary screen, selectivity assay for Bfl-1 inhibitor project, biochemical, fluorescence polarization, FITC-TR3 peptide (AID 748);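 also: fluorescence polarization from a fluorescein-labelled TR3 peptide binding purified Bcl-B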
T6 sequence (Q9HD36 whole entry): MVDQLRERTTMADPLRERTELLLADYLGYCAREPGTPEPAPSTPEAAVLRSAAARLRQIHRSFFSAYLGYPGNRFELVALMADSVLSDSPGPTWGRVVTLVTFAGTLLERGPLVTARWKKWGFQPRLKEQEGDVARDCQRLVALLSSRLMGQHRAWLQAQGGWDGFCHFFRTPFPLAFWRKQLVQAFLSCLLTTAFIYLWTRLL

[19] = target: Glyceraldehyde-3-phosphate dehydrogenase (Homo sapiens, UniProt P04406)
Chain of Glyceraldehyde-3-phosphate dehydrogenase (P04406 whole entry): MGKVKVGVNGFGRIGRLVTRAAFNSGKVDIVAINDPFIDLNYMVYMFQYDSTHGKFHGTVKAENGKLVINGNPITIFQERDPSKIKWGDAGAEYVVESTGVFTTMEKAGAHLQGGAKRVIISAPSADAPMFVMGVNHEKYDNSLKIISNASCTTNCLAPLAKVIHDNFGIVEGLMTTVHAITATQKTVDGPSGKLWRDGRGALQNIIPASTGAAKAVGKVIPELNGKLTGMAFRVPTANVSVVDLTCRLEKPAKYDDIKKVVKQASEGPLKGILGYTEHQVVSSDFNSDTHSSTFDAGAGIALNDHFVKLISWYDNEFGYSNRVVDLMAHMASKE

[20] = target: T5, E3 ubiquitin-protein ligase XIAP; test: Counter Screen using XIAP-Bir3 for Chemical Antagonists of Bir1/2 domains of IAP-family anti-apoptotic proteins. [Related pubchem assays (depositor defined):AID1018, AID1449, AID1514, AID1638, AID1749, AID1750, AID488957, AID488963]
[21] = target: Heat shock 70 kDa protein 1A (Homo sapiens, UniProt P0DMV8); test: Hsp70 inhibitors, SAR follow-up, biochemical, fluorescence polarization (AID 1072)
[22] = target: T7, Dual specificity protein phosphatase 6 (Rattus norvegicus, UniProt Q64346); format: functional
T7 sequence (Q64346 whole entry): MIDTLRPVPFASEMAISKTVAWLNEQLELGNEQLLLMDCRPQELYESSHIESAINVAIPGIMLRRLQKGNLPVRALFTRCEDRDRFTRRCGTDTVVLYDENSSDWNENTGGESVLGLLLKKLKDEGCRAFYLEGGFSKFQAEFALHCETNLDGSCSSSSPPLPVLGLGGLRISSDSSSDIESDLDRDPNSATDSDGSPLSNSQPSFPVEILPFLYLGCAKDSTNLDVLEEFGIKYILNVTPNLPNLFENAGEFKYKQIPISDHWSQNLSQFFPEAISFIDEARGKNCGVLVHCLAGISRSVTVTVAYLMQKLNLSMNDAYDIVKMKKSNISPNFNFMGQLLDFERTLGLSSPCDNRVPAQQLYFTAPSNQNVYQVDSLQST

[23] = target: T7, Dual specificity protein phosphatase 6
[24] = target: T7, Dual specificity protein phosphatase 6; test: MKP-3 phosphatase inhibitors, primary screen, biochemical, rat enzyme, in vitro (AID 425)
Large T antigen = Large T antigen (Simian virus 40, UniProt P03070); format: functional, Betapolyomavirus macacae;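 also: Confirmatory-stage PubChem screen for compounds that inhibit SV40 T antigen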
[25] = target: Heat shock cognate 71 kDa protein (Homo sapiens, UniProt P11142); test: In Vitro Hsc70 Dose Response Fluorescence Polarization Assay. [Related pubchem assays: 1072 ]
[26] = target: T8, Tyrosine-protein phosphatase non-receptor type 7 (Homo sapiens, UniProt P35236); format: functional
T8 sequence (P35236 whole entry): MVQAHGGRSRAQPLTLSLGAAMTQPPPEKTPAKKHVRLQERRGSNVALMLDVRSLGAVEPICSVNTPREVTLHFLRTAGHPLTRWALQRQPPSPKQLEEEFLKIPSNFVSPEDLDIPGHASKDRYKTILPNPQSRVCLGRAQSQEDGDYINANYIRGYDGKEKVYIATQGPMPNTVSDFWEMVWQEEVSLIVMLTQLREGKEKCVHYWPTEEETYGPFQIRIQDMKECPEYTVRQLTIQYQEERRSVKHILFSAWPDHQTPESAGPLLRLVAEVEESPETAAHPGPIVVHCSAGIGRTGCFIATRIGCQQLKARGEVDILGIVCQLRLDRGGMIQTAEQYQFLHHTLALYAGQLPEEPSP

[27] = target: Eukaryotic translation initiation factor 4E (Mus musculus, UniProt P63073); test: eIF4E–eIF4G protein interaction inhibitors, dose response, biochemical, TR-FRET (AID 855); format: functional;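 also: potency for disrupting eIF4E binding to eIF4GI seen as loss of FRET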
Chain of Eukaryotic translation initiation factor 4E (P63073 whole entry): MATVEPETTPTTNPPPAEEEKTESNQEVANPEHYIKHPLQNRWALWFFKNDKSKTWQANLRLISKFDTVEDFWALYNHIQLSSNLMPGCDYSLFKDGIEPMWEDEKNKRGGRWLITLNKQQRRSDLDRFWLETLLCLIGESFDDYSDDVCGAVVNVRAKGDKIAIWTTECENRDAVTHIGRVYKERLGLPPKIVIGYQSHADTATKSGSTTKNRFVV

[28] = target: Transitional endoplasmic reticulum ATPase (Homo sapiens, UniProt P55072); test: Luminescence dose response biochemical high throughput screening assay for inhibitors of the p97 ATPase: synthesized compounds. [Related pubchem assays: 1481, 1517 ]
[29] = target: T9, Ubiquitin-conjugating enzyme E2 N (Homo sapiens, UniProt P61088); format: functional;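 also: Dose-response confirmation in a TR-FRET assay detecting UBC13-driven polyubiquitin chain formation, inhibition measured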
T9 sequence (P61088 whole entry): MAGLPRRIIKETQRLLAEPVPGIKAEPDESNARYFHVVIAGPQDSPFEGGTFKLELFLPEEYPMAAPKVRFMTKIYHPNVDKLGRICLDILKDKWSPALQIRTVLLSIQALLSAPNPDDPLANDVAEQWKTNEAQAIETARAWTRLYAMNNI

[30] = target: Transitional endoplasmic reticulum ATPase (Homo sapiens, UniProt P55072, C522A); test: Luminescence counterscreen assay for p97 inhibitors: dose response biochemical high throughput screening assay to identify inhibitors of the C522A mutant p97 ATPase: synthesized compounds. [Related pubchem assays: 1481, 1517, 1551 ]
[31] = Luminescence Cell-Based Dose Retest to Confirm Inhibitors of Cancer Stem Cells. [Related pubchem assays (depositor defined):AID2717, AID2721]; format: functional; conditions: Homo sapiens
[32] = target: Neurotensin receptor type 1 (Homo sapiens, UniProt P30989); format: functional;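 also: Image-based confirmatory dose-response assay measuring agonist activity at NTR1; NTR1-expressing U2OS osteosarcoma cells imaged for beta-arrestin GFP spot formation; agonist potency where compounds increase beta-arrestin recruitment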

In the case of `CCOc1ccc(Oc2cnn(-c3ccc(C)cc3)c(=O)c2Cl)cc1`, the IC50 [1] was 6.3 µM (active) and the IC50 [2] was 18.2 µM (inactive).

With `Cc1cccc(OCC(=O)Nc2cc(C)nn2-c2nc(C)cc(=O)[nH]2)c1` the EC50 [3] was > 49.7 µM (inactive) and the EC50 (Wee1-like protein kinase) was > 16.6 µM (active).

For `CCCCSc1nc(O)c2c(n1)CCC2`, the IC50 (Neutrophil collagenase) was > 39.8 µM (active) and the IC50 (Collagenase 3) was > 39.8 µM (active).

In the case of `C/C(=N\NC(=O)c1cc2ccccc2cc1O)c1ccccn1`, the pIC50 [4] was < 4.49, the AC50 [5] was 0.729 µM (active) and the AC50 (INS1) was 0.958 µM (active). For the same molecule, the IC50 [6] was 2.14 µM (active), the AC50 [7] was 6.63 µM (active) and the EC50 [8] was > 150 µM (inactive). The IC50 (Beta-galactosidase [9]) was 136 µM (inactive), the EC50 [10] was 4.08 µM (active) and the IC50 (Nonstructural protein 1) was 3.77 µM (active). For the same molecule, the EC50 (Beta-galactosidase [11]) was > 31.5 µM (inactive), the EC50 [12] was > 180 µM (inactive) and the EC50 [13] was 1.02 µM (active). For the same molecule, the CC50 (Vero) was 1.93 µM (active).

With `CCOC(=O)c1c(C)nc2cc(C)ccn12` the EC50 (cells [14]) was > 350 µM (not active), the AC50 (HeLa) was 69.7 µM (active) and the EC50 (cells [15]) was > 350 µM (not active). For the same molecule, the AC50 (Salmon testes DNA) was 285 µM (active) and the IC50 (cells [16]) was 28.4 µM (active).

With `CCOC(=O)c1ccc2c(c1)C1C=CCC1C(C(=O)O)N2` (configuration not stated) the IC50 [17] was > 100 µM (not active), the IC50 [18] was 0.997 µM (active) and the IC50 (Bcl-2-like protein 10) was 1.08 µM (active). For the same molecule, the IC50 [19] was 95.4 µM (active), the IC50 [20] was > 1.56 µM (inactive) and the IC50 [21] was 5.56 µM (active). For the same molecule, the IC50 [22] was 9.87 µM (active), the IC50 [23] was 14.7 µM (active) and the IC50 [24] was > 10 µM (not active). The IC50 (Large T antigen) was 14.2 µM (active), the IC50 [25] was 27 µM (active) and the IC50 [26] was 2.18 µM (active). For the same molecule, the IC50 [27] was 10.2 µM (active).

For `N#Cc1ccc(Nc2nc(-c3ccc(O)cc3O)cs2)cc1C(F)(F)F`, the IC50 [28] was 13.5 µM (not active), the IC50 [29] was > 20 µM (inactive) and the IC50 [30] was > 50 µM (not active). For the same molecule, the AC50 [31] was 4.98 µM (active) and the EC50 [32] was 9.59 µM (active).
